# Test results from US20050043214A1, “Antiglaucomatous agent and use thereof” (priority 2001, published 2005).
# Tested on: Patients with glaucoma
# Assay: Intraocular pressure of glaucoma patients measured by applanation tonometry during eyedrop treatment
# Format: in vivo, human
# Settings: average of last six measurements
# Method: Patients with glaucoma which had led to glaucomatous damage were treated. All the patients had previously been treated with timolol 0.5% eyedrops, and in some cases with a combination therapy of timolol 0.5% and another antiglaucomatous agent. The initial state of the intraocular pressure was measured during the previous therapy by determining the average of the last six measurements during the previous therapy. Two groups of patients were then treated according to the invention. […] They formed the group of decompensated glaucomas. Group 2 comprised patients who had normalized intraocular pressures on treatment with timolol 0.5%. They formed the group of compensated glaucomas. […] A third group formed of 11 patients was treated in the same manner with eyedrops which contained only 0.5% lactalbumin hydrolyzate fraction from example 5. The intraocular pressure was checked initially after one day, after two days and then weekly. The measurements of intraocular pressure took place at various times of day (morning, midday, late afternoon) by applanation tonometry. In total, 18 patients with an average age of 56.6 years, of whom 8 were male and 10 patients were female, were treated for 9 weeks.
structure (smiles),measurement,setting,value
CC(C)(C)NC[C@H](O)COc1nsnc1N1CCOCC1 [timolol],average intraocular pressure by applanation before the treatment according to the invention,"group 1 decompensated glaucomas, on timolol 0.5% or combination therapy with another antiglaucomatous agent, range of variation 3.6 mmHg",26.4 mmHg
same,average intraocular pressure by applanation before the treatment according to the invention,"group 2 compensated glaucomas, on timolol 0.5%, range of variation 1.6 mmHg",19.2 mmHg
